Measurements reported in PubChem BioAssay (NCI).
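48-hour exposure; five concentrations; linearly interpolated endpoints. The concentration for 50% growth inhibition is given as GI50. TGI denotes the concentration required for complete inhibition of growth.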

Experiments:
Test in all cases: DTP human tumour cell line panel, 48 h
[1] = test system: HOP-18 NSCLC
[2] = test system: LXFL 529 NSCLC
[3] = test system: DLD-1 colon
[4] = test system: DMS 114 small cell lung
[5] = test system: KM20L2 colon
[6] = test system: SNB-78 CNS
[7] = test system: XF 498 CNS
[8] = test system: RXF-631 renal
[9] = test system: DMS 273 small cell lung

Compound	TGI [1] [µM]	TGI [2] [µM]	TGI [3] [µM]	TGI [4] [µM]	TGI [5] [µM]	TGI [6] [µM]	TGI [7] [µM]	TGI [8] [µM]	TGI [9] [µM]	GI50 [1] [µM]	GI50 [2] [µM]	GI50 [3] [µM]	GI50 [8] [µM]	GI50 [4] [µM]	GI50 [5] [µM]	GI50 [6] [µM]	GI50 [9] [µM]	GI50 [7] [µM]
Cc1cc(C(=O)N2CCN(Cc3ccccc3)CC2)c(C)o1	> 100	> 100	> 100	> 100	> 100	> 100	> 100											
Cc1cc(C)cc(Sc2c([N+](=O)[O-])ncn2C)c1	14.4	40.9	27.5	34.4	> 100	58.9	59.5	51.3	25.8									
Cc1cc(NS(=O)(=O)c2ccc(NC(=O)c3cccc4c(Nc5ccc(S(=O)(=O)Nc6cc(C)on6)cc5)c5ccccc5nc34)cc2)no1	69.3	95.5	> 100	> 100	> 100	> 100	96.1		> 100									
O=c1c2ccccc2c(=O)c2c1cc(Cl)c1[nH]c3c([nH]c12)c(Cl)cc1c(=O)c2ccccc2c(=O)c13			> 100	> 100	> 100	> 100			> 100									
N#CCC(=O)N/N=C1\C(=O)N(c2ccc(Cl)cc2)C(=O)C(=O)C1c1nc2ccccc2o1 (stereo not given)	> 100	> 100	> 100	> 100	> 100	> 100		> 100	> 100									
CCOC(=O)C(=O)N=Nc1nc2c(O)c3ccccc3c(O)c2s1	7.06	3.3	10.2	3.39	32.1	8.48	4.46	39.9	9.2									
O=C(Nc1ccccc1Br)c1cccc([N+](=O)[O-])c1O	> 25.1	22.1	> 100	18	36.7	> 84.8		> 100	> 48.8									
CC(=O)OC1C(CCl)OC(N=[N+]=[N-])C(OC(C)=O)C1OC(C)=O (stereo not given)			> 100	> 100	> 100		> 100	> 100	> 100									
O=C(O)C1c2ccccc2C(C(=O)O)c2ccccc21 (stereo not given)	> 100	> 100	> 100	> 100	> 100	> 100			> 100									
CC(C)(C)[Si](C)(C)O/N=C\c1ccc(O[Si](C)(C)C(C)(C)C)cc1	> 100	> 100	> 100	75.3	> 100	> 100	83	53.5	> 100									
C=C1Oc2nc3ccccc3c(=O)n2C1(C)C	> 100	> 100	> 100	> 100	> 100	> 100	> 100		> 100									
CC[O-].Cc1ccc2cccc([O-])c2n1.Cc1ccc2cccc([O-])c2n1.Cc1ccc2cccc([O-])c2n1.[Ti+4]	> 92.6	> 49.3	> 81	> 59.3	> 100	> 100	58.3	> 65.4	> 67.7	41.1	24.8	28.9	18.8	21.9	> 54.2	59.7	> 33.3	17.3
COc1cc2cc[n+]3c4cc(OC)c(OC)cc4c(C)cc3c2cc1OC	> 100	> 100	> 100	> 100	> 100	> 100	> 100	> 100	> 100									
COc1cc([C@@H]2c3cc4c(cc3[C@H](O)[C@H]3COC(=O)[C@H]23)OCO4)cc(OC)c1OC	> 100	> 100	> 100			> 100	> 100											
O=C(O)C#CCO		> 100		> 100		> 100	> 100	> 100	> 100									
C/C(=N/NC(=O)C(N)=O)C(CC(C(=O)Nc1ccccc1C)/C(C)=N\NC(=O)C(N)=O)C(=O)Nc1ccccc1C (stereo not given)		> 100	> 100		> 100	> 100												
COC(=O)C1CCC(Nc2cccc(C(F)(F)F)c2)=N1 (stereo not given)	> 100	> 100	> 100	> 100		> 100	> 100	> 100	> 100									
CC1=C(c2cc(C(=O)Nc3ccc(Cl)c(Cl)c3)nc(N)n2)Sc2ccccc2N1	> 100	> 100	> 100	> 100	> 100	> 100	> 100		> 100									
CCC[CH2][Sn]([CH2]CCC)([O]C(=O)c1nccnc1N)[O]C(=O)c1nccnc1N	3.8	0.327	2.12		2.95	1.57	2.68		2.12	2.32	0.124	0.876			1.59	0.388	0.869	1.38
CCN(CC)CCNC(=O)c1cccc2cc3ccccc3nc12	88.5		20.7	19.2		57		32.8	24.3									
O=C1/C(=C/c2ccccc2)CCC/C1=C\c1ccccc1	38.7	15.8	8.83	24.3	22.2	> 87.9		50.5	21.5									
O=C(O)CCC1(Br)CCCCC(Br)C1=O (stereo not given)	> 100	> 100		> 100	> 100	> 100	> 100		> 100									
N#CC(C#N)=CSc1ccccc1	> 100	> 100	63.3	43	> 100		> 100	> 100	65.4									
